Measurements from PubChem BioAssay (NCI).
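Compound exposure: 48 hours, 5 concentrations, 96-well plates. TGI marks complete inhibition of growth.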

How the values were obtained:
Test in all cases: NCI anticancer screen, dose series, 48 h
RXF 393 renal = test system: RXF 393 renal
786-0 renal = test system: 786-0 renal
DMS 273 small cell lung = test system: DMS 273 small cell lung
NCI-H226 lung = test system: NCI-H226 lung
HOP-18 NSCLC = test system: HOP-18 NSCLC
NCI-H460 lung = test system: NCI-H460 lung
M14 melanoma = test system: M14 melanoma
SF-295 CNS = test system: SF-295 CNS
HOP-92 NSCLC = test system: HOP-92 NSCLC
OVCAR-8 ovarian = test system: OVCAR-8 ovarian
EKVX NSCLC = test system: EKVX NSCLC
U251 CNS = test system: U251 CNS
LXFL 529 NSCLC = test system: LXFL 529 NSCLC
HT29 colon = test system: HT29 colon
CAKI-1 renal = test system: CAKI-1 renal
ACHN renal = test system: ACHN renal
SK-MEL-2 melanoma = test system: SK-MEL-2 melanoma
RPMI-8226 leukemia = test system: RPMI-8226 leukemia
HCC-2998 colon = test system: HCC-2998 colon
KM12 colon = test system: KM12 colon
SK-MEL-5 melanoma = test system: SK-MEL-5 melanoma
SK-OV-3 ovarian = test system: SK-OV-3 ovarian
NCI-H23 lung = test system: NCI-H23 lung
NCI-H522 lung = test system: NCI-H522 lung
SF-539 CNS = test system: SF-539 CNS
CCRF-CEM leukemia = test system: CCRF-CEM leukemia
XF 498 CNS = test system: XF 498 CNS
SK-MEL-28 melanoma = test system: SK-MEL-28 melanoma
UO-31 renal = test system: UO-31 renal
HCT-15 colon = test system: HCT-15 colon
SNB-19 CNS = test system: SNB-19 CNS
IGROV1 ovarian = test system: IGROV1 ovarian
SR leukemia = test system: SR leukemia
DLD-1 colon = test system: DLD-1 colon
OVCAR-3 ovarian = test system: OVCAR-3 ovarian
DMS 114 small cell lung = test system: DMS 114 small cell lung
TK-10 renal = test system: TK-10 renal
SF-268 CNS = test system: SF-268 CNS
A549 NSCLC = test system: A549 NSCLC
SN12C renal = test system: SN12C renal
M19-MEL melanoma = test system: M19-MEL melanoma
HL-60(TB) leukemia = test system: HL-60(TB) leukemia
A498 renal = test system: A498 renal
OVCAR-4 ovarian = test system: OVCAR-4 ovarian
KM20L2 colon = test system: KM20L2 colon
K-562 leukemia = test system: K-562 leukemia
SNB-75 CNS = test system: SNB-75 CNS
SW-620 colon = test system: SW-620 colon
HCT-116 colon = test system: HCT-116 colon
COLO 205 colon = test system: COLO 205 colon
MOLT-4 leukemia = test system: MOLT-4 leukemia
MALME-3M melanoma = test system: MALME-3M melanoma

For `O=C1N(Cl)C(=O)C(c2ccc(Cl)cc2)(c2ccc(Cl)cc2)N1Cl`, the TGI (RXF 393 renal) was 84.8 µM, the TGI (786-0 renal) was greater than 100 µM and the TGI (DMS 273 small cell lung) was greater than 100 µM. For the same molecule, the TGI (NCI-H226 lung) was greater than 100 µM, the TGI (HOP-18 NSCLC) was greater than 100 µM and the TGI (NCI-H460 lung) was greater than 100 µM. For the same molecule, the TGI (M14 melanoma) was greater than 100 µM, the TGI (SF-295 CNS) was greater than 100 µM and the TGI (HOP-92 NSCLC) was greater than 100 µM. For the same molecule, the TGI (OVCAR-8 ovarian) was greater than 100 µM, the TGI (EKVX NSCLC) was greater than 100 µM and the TGI (U251 CNS) was greater than 100 µM. For the same molecule, the TGI (LXFL 529 NSCLC) was greater than 100 µM, the TGI (HT29 colon) was greater than 100 µM and the TGI (CAKI-1 renal) was greater than 100 µM. The TGI (ACHN renal) was greater than 100 µM, the TGI (SK-MEL-2 melanoma) was greater than 100 µM and the TGI (RPMI-8226 leukemia) was greater than 100 µM. For the same molecule, the TGI (HCC-2998 colon) was greater than 100 µM, the TGI (KM12 colon) was greater than 100 µM and the TGI (SK-MEL-5 melanoma) was greater than 100 µM. For the same molecule, the TGI (SK-OV-3 ovarian) was greater than 100 µM, the TGI (NCI-H23 lung) was greater than 100 µM and the TGI (NCI-H522 lung) was greater than 100 µM. The TGI (SF-539 CNS) was greater than 100 µM, the TGI (CCRF-CEM leukemia) was 60.9 µM and the TGI (XF 498 CNS) was greater than 100 µM. The TGI (SK-MEL-28 melanoma) was greater than 100 µM, the TGI (UO-31 renal) was greater than 100 µM and the TGI (HCT-15 colon) was greater than 100 µM. The TGI (SNB-19 CNS) was greater than 100 µM, the TGI (IGROV1 ovarian) was greater than 100 µM and the TGI (SR leukemia) was greater than 100 µM. For the same molecule, the TGI (DLD-1 colon) was greater than 100 µM, the TGI (OVCAR-3 ovarian) was greater than 100 µM and the TGI (DMS 114 small cell lung) was greater than 100 µM. The TGI (TK-10 renal) was greater than 100 µM, the TGI (SF-268 CNS) was greater than 100 µM and the TGI (A549 NSCLC) was greater than 100 µM. The TGI (SN12C renal) was greater than 100 µM, the TGI (M19-MEL melanoma) was greater than 100 µM and the TGI (HL-60(TB) leukemia) was greater than 100 µM. The TGI (A498 renal) was greater than 100 µM, the TGI (OVCAR-4 ovarian) was greater than 100 µM and the TGI (KM20L2 colon) was greater than 100 µM. For the same molecule, the TGI (K-562 leukemia) was greater than 100 µM, the TGI (SNB-75 CNS) was greater than 100 µM and the TGI (SW-620 colon) was greater than 100 µM. It also gave a TGI (HCT-116 colon) greater than 100 µM, a TGI (COLO 205 colon) greater than 100 µM and a TGI (MOLT-4 leukemia) greater than 100 µM. For the same molecule, the TGI (MALME-3M melanoma) was greater than 100 µM.
